According to patent US20260232634A1, “TREATMENT OF PEDIATRIC CANCERS USING GYLCOGEN SYNTHASE KINASE FORM B INHIBITORS” (Actuate Therapeutics Inc., priority 2023, published 2026):
Several values for one entry are separate records, joined by “and”; a condition that tells them apart may be missing. Equal entries are not always repeated. Entries after “also recorded” stand apart in the source; their conditions may differ.

How the values were obtained:
[1] = Human pharmacokinetics of 9-ING-41 from study NCT03678883; details: in vivo, intravenous, dose 9.3 mg/kg (current dose)
Source text: Example 1. Human Pharmacokinetics of 9-ING-41 from Study

[2] = system: refractory malignancies; assay: Phase 1/2 study of 9-ING-41 as a single agent or with chemotherapy in pediatric patients with refractory malignancies; assay type: in vivo, human (pediatric patients); details: for OS (overall survival) / Notes (response): intermediate data; for Best Response / Status Last FUP / Survival: unaudited data
[3] = 1801 adult study, tolerated dose level; assay type: in vivo, human (adult)
[4] = system: 93T449 liposarcoma cell line; assay: Western blot analysis after 9-ING-41 treatment; assay type: cell-based, Human; details: 93T449, pretreated at IC5072, harvested after 48 hours
Protocol: (§1) Saos-2 osteosarcoma and 93T449 liposarcoma cell lines were pretreated at IC5072 with small molecule GSK-3 inhibitor 9-ING-41 (elraglusib). The cells were harvested for western blot analysis after 48 hours of treatment. Additionally, both cancer cell lines as well as TALL-104 T-cells and NK-92 NK cells were treated with 0.5 μM 9-ING-41 for 24 hours and harvested for Luminex cytokine profiling. […] Additionally, an increase in PD-L1 expression was observed. […] Follow-up cytokine profiling is in progress. […] The potential synergistic effect of these two therapies is currently under investigation with co-culture experiments of sarcoma and immune cells. The treatment cohorts for these experiments include 9-ING-41 combined with either anti-PD-L1, anti-PD-1, or anti-CTLA-4 immune checkpoint inhibitors.

[5] = system: Saos-2 osteosarcoma cell line; assay: Western blot analysis after 9-ING-41 treatment; assay type: cell-based, Human; details: Saos-2, pretreated at IC5072, harvested after 48 hours
Protocol: as §1

[6] = system: NK-92 NK cells; assay: Luminex cytokine profiling; assay type: cell-based; details: NK-92 cells, 0.5 μM 9-ING-41 for 24 hours
Protocol: as §1

[7] = system: TALL-104 T-cells; assay: Luminex cytokine profiling; assay type: cell-based; details: 0.5 μM 9-ING-41 for 24 hours
Protocol: as §1

[8] = system: 93T449 liposarcoma cell line; assay: Luminex cytokine profiling; assay type: cell-based, Human; details: 93T449, 0.5 μM 9-ING-41 for 24 hours
Protocol: as §1

[9] = system: Saos-2 osteosarcoma cell line; assay: Luminex cytokine profiling; assay type: cell-based, Human
Protocol: as §1

[10] = CIC rearranged sarcoma patient, elraglusib 15 mg/kg + Cyclophosphamide/topotecan
[11] = Ependymoma patient, elraglusib 9.3 mg/kg + Cyclophosphamide/topotecan
[12] = Ependymoma patient, elraglusib 12.4 mg/kg, chemotherapy backbone N/A
[13] = Ependymoma patient, elraglusib 15 mg/kg + Irinotecan
[14] = Ewing sarcoma patient, 9-ING-41 9.3 mg/kg + Cyclophosphamide/topotecan
[15] = Ewing sarcoma patient, elraglusib 9.3 mg/kg + Cyclophosphamide/topotecan
[16] = Ewing sarcoma patient, elraglusib 12.4 mg/kg + Cyclophosphamide/topotecan
[17] = Ewing sarcoma patient, elraglusib 15 mg/kg + Cyclophosphamide/topotecan
[18] = Glioblastoma multiforme (GBM) patient, elraglusib 12.4 mg/kg + Cyclophosphamide/topotecan
[19] = Neuroblastoma patient, 9-ING-41 12.4 mg/kg + Cyclophosphamide/topotecan
[20] = Neuroblastoma patient, elraglusib 9.3 mg/kg + Irinotecan
[21] = Neuroblastoma patient, elraglusib 12.4 mg/kg + Cyclophosphamide/topotecan
[22] = Neuroblastoma patient, elraglusib 12.4 mg/kg + Irinotecan
[23] = Neuroblastoma patient, elraglusib 15 mg/kg + Cyclophosphamide/topotecan
[24] = Osteosarcoma patient, elraglusib 9.3 mg/kg + Cyclophosphamide/topotecan
[25] = Rhabdomyosarcoma patient, elraglusib 9.3 mg/kg + Irinotecan
[26] = seven metastatic, refractory Ewing and Ewing-like sarcoma patients, elraglusib+cyclophosphamide/topotecan

## Cn1cc(C2=C(c3coc4ccc(F)cc34)C(=O)NC2=O)c2cc3c(cc21)OCO3 [9-ING-41, 3-(5-Fluorobenzofuran-3-yl)-4-(5-methyl-5H-[1,3]dioxolo[4,5-f]indol-7-yl) pyrrole-2,5-dione]
[1]
  AUC(0-inf): 45700 ng·h/mL
  Cmax: 6410 ng/mL
  half-life: 18.9 ± 6.3 h
[1]; read-out: AUC(0-24)
  AUC(0-t): 42000 ng·h/mL
[2]; 6 patients (2 NBL, 1 aRMS, 1 EP, 1 OS, 1 GBM)
  patients with stable disease: 26.1%
[2]; 8 pts (2 NBL, 2 EP, 1 OS, 1 aRMS, 1 ES, 1 PB)
  patients remaining on study treatment ≥3 months: 35%
[2]; Adrenocortical carcinoma patient, 9-ING-41 15 mg/kg + Cyclophosphamide/topotecan
  OS (overall survival): 102 days
[2]; Alveolar rhabdomyosarcoma patient, 9-ING-41 9.3 mg/kg + Irinotecan
  OS (overall survival): 375 days
[2]; CIC rearranged sarcoma patient, 9-ING-41 15 mg/kg + Cyclophosphamide/topotecan
  OS (overall survival): 47 days
[2]; [10]
  Best Response: PD (progressive disease)
  Status Last FUP: Dead
  Survival: 48 days
[2]; Embryonal CNS tumor NOS patient, 9-ING-41 9.3 mg/kg + Irinotecan
  OS (overall survival): 262 days
[2]; [11]
  Best Response: PD (progressive disease)
  Status Last FUP: Alive
  Survival: 182 days
[2]; [12]
  Best Response: SD (stable disease)
  Status Last FUP: Dead
  Survival: 440 days
[2]; [13]
  Best Response: SD (stable disease)
  Status Last FUP: Dead
  Survival: 757 days and 526 days
[2]; [14]
  Notes (response): pCR-
  OS (overall survival): 379 days
[2]; Ewing sarcoma patient, 9-ING-41 12.4 mg/kg + Cyclophosphamide/topotecan
  OS (overall survival): 176 days
[2]; [15]
  Status Last FUP: Alive
  Survival: 804 days
[2]; [16]
  Best Response: SD (stable disease)
  Status Last FUP: Dead
  Survival: 177 days
[2]; [17]
  Best Response: SD (stable disease); also recorded: PR (partial response)
  Status Last FUP: Dead and Alive
[2]; Glioblastoma multiforme (GBM) patient, 9-ING-41 12.4 mg/kg + Cyclophosphamide/topotecan
  OS (overall survival): 406 days
[2]; [18]
  Best Response: SD (stable disease)
  Status Last FUP: Alive
  Survival: 407 days
[2]; High grade astrocytoma patient, 9-ING-41 15 mg/kg, combo treatment N/A
  OS (overall survival): 97 days
[2]; Neuroblastoma patient, 9-ING-41 9.3 mg/kg + Irinotecan, 9.3 mg/kg
  OS (overall survival): 245 days and 389 days
[2]; [19]
  Notes (response): pCR-
  OS (overall survival): 308 days
[2]; Neuroblastoma patient, 9-ING-41 15 mg/kg + Cyclophosphamide/topotecan
  OS (overall survival): 113 days
[2]; Neuroblastoma patient, 9-ING-41 15 mg/kg + Irinotecan
  OS (overall survival): 68 days
[2]; [20]
  Best Response: SD (stable disease); also recorded: PD (progressive disease)
  Status Last FUP: Dead
  Survival: 245 days and 389 days
[2]; [21]
  Status Last FUP: Dead
  Survival: 438 days
[2]; [22]
  Best Response: SD (stable disease)
  Status Last FUP: Dead
  Survival: 360 days
[2]; [23]
  Best Response: SD (stable disease)
  Status Last FUP: Alive
  Survival: 440 days
[2]; Osteosarcoma patient, 9-ING-41 9.3 mg/kg + Cyclophosphamide/topotecan
  OS (overall survival): 389 days
[2]; [24]
  Best Response: SD (stable disease)
  Status Last FUP: Alive
  Survival: 481 days
[2]; Progressive ependymoma patient, 9-ING-41 9.3 mg/kg + Cyclophosphamide/topotecan
  OS (overall survival): 407 days
[2]; Recurrent ependymoma patient, 9-ING-41 15 mg/kg + Irinotecan
  OS (overall survival): 403 days
[2]; Rhabdomyosarcoma patient, 9-ING-41 15 mg/kg + Cyclophosphamide/topotecan
  OS (overall survival): 78 days
[2]; Rhabdomyosarcoma patient, 9-ING-41 15 mg/kg + Irinotecan
  OS (overall survival): 19 days
[2]; [25]
  Best Response: SD (stable disease)
  Status Last FUP: Dead
  Survival: 375 days
[2]; heavily pre-treated pediatric patient population
  tolerability: well tolerated
[2]; individual Ewing patients, elraglusib+cyclophosphamide/topotecan
  reduction of tumor at the 1st tumor assessment (partial remission): 52% and 96%
[2]; one metastatic, refractory Ewing patient, elraglusib+cyclophosphamide/topotecan, 2 months of treatment
  tumor response at 1st tumor assessment: complete remission
[2]; one patient with recurrent Ewing's sarcoma, after 3 cycles of elraglusib/cyclophosphamide/topotecan
  radiographic and pathologic response: complete response
[2]; same Ewing patient, stopped all treatments after 4 months
  time in remission with no evidence of disease after termination of treatment: ~2 years
[2]; [26]
  patients continuing on treatment: three of the seven
  patients remaining alive: Four of the seven
[3]
  highest currently tolerated dose level: tolerated dose level in the 1801 adult study (15 mg/kg).
[4]
  PD-L1 expression, western blot: increase
  cPARP (apoptotic marker), western blot: increase
[5]
  PD-L1 expression, western blot: increase
  cPARP (apoptotic marker), western blot: increase
[6]
  IL-8 chemokine: increase
  soluble TRAIL (TRAIL/TNFSF10): increase
[7]
  CXCL11: increase
  IL-18: increased level
[8]
  growth factor TGF-α: homogenous increase
[9]; Saos-2 (only this cancer cell line), 0.5 μM 9-ING-41 for 24 hours
  IL-6: increase
[9]; Saos-2, 0.5 μM 9-ING-41 for 24 hours
  growth factor TGF-α: homogenous increase
